Test results taken from US9456589B2, “Elasmobranch-repelling compounds and methods of use” (priority 2005, dated 2016).
Where “and” joins values, the source holds several entries; their conditions need not be identical. Identical values can stand only once.

What was measured:
tiger sharks = assay: Tonic immobility, Hd Syringe Assay; format: in vivo, G. cuvieri; conditions: 1 ml
Experimental: (§1) One bioassay used to observe and measure flight response is the tonic immobility test. Tonic immobility is a state of paralysis that typically occurs when a shark is subject to inversion of its body along the longitudinal axis. This state is called “tonic,” and the shark can remain in this state for up to 15 minutes thereby allowing researchers to observe effects of chemical repellents. The “tonic” state of the shark is first established by releasing seawater in proximity to the “tonic” shark with the same delivery instrument and at the same distance as a “test” repellent compound will be released. Some controls are released with a high flow rate (30 mL/sec) in order to establish that sharks are not awakened by a jet of fluid over their noses. Once behavioral controls are established, a compound or composition that may have a repelling effect is delivered to the shark. If the compound or composition engenders a flight response, the shark will awaken from the tonic state and rapidly attempt to flee the delivered repellent. Using this tonic immobility bioassay researches can quantify the strength of a repellent effect.
Lemon, nurse, blacktip and tiger sharks were placed in tonic immobility by inverting the shark's body along its longitudinal axis. […]

nurse sharks = assay: Tonic immobility, Bite Assay; format: in vivo, C. cirratum
Experimental: One bioassay used to observe and measure flight response is the tonic immobility test. Tonic immobility is a state of paralysis that typically occurs when a shark is subject to inversion of its body along the longitudinal axis. This state is called “tonic,” and the shark can remain in this state for up to 15 minutes thereby allowing researchers to observe effects of chemical repellents. The “tonic” state of the shark is first established by releasing seawater in proximity to the “tonic” shark with the same delivery instrument and at the same distance as a “test” repellent compound will be released. Some controls are released with a high flow rate (30 mL/sec) in order to establish that sharks are not awakened by a jet of fluid over their noses. Once behavioral controls are established, a compound or composition that may have a repelling effect is delivered to the shark. […] Using this tonic immobility bioassay researches can quantify the strength of a repellent effect. […]
In Bite Assays, a dose of typically less than 5 mL of 3-methylbutanal was presented directly into the shark's mouth using a pipette. […] Because the delivery was directly into the shark's mouth and responses were generally observed immediately upon delivery, time to response was not recorded.

blue sharks = assay: Tonic immobility, syringe delivery to the mouth of blue sharks; format: in vivo, Prionace glauca; conditions: two blue sharks, two assays each, 20 mL or less
Excerpt: The sharks had been captured on rod and reel and were held in tonic immobility along a boat.

[1] = system: sharks (lemon, nurse, tiger pooled); assay: Tonic immobility, Hd Syringe Assay, summary over species; format: in vivo; conditions: species pooled
Procedure, shortened: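 Sharks held in tonic immobility by inversion, with seawater sham releases (some at 30 mL/sec) as controls. 3-methylbutanal released slowly by 3 mL syringe (22 gauge) within 3 inches of mouth and nares. Waking/flight response recorded, with time to response where measurable.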

[2] = system: sharks (lemon, nurse, blacktip, tiger, blacknose pooled); assay: Tonic immobility, Syringe 3/5/10 Assay, summary over species; format: in vivo
Experimental: as §1
In the tonic immobility studies disclosed herein, several different methods were employed for delivery of repelling compounds. A first method for delivery of chemical repellent in tonic immobility studies employed a “Syringe 3/5/10 Assay” method. The “Syringe 3/5/10 Assay” method is so named because a test repellent is delivered to a shark from a distance of about “3” inches with a bolus of about “5” mL with a response to the test repellent considered positive if the shark reacts with a change in behavior within less than about “10” seconds from the time of delivery.
The “3/5/10 Syringe Assay” as employed herein delivered a dose of 5-6 mL of a test chemical repellent from a syringe fixed with a needle having a gauge of about 22 from a distance at least 3 inches in front of a shark. Because the test chemical repellent was delivered at a distance from the shark's nares and mouth, a cloud of test chemical repellent was dispersed over the shark within the water column. The dispersed test repellent was subject to water current direction, dispersion and dilution. As a result, a flight response within 10 seconds was considered a positive repellency response. […] Time from delivery to response is related to the size of the bolus delivered from the syringe, distance of the shark from the syringe and water current.
In Syringe 3/5/10 Assays, 5-6 mL of 3-methylbutanal was delivered at least 3 inches in front of the shark's mouth. A cloud of the repellent dispersed over the shark within the water column. […] As noted above, because the dispersion of the chemical repellent upon delivery is affected by volume of repellent, water current, and other factors, the time between delivery and response was not correlatable with the potency of the repellent.

[3] = system: sharks (lemon, nurse, blacknose, blacktip pooled); assay: Tonic immobility, Syringe Assay, summary over species; format: in vivo
Procedure, shortened: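 Test chemical delivered as a bolus of 60 mL or more from one to five feet from the shark, distance set by water current strength. Time from delivery until response was recorded; it depends on bolus size, distance and current as the diffusing cloud reaches the shark.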

[4] = system: captive Cobia and Yellowfin Tuna; assay: Feeding behavior of captive fish in the presence of aldehydes; format: in vivo
Excerpt: Similarly, teleost reef fish, such as Triggerfish and Snappers, have been observed feeding and swimming in a cloud of shark-repelling aldehydes. This behavior is presumed to result from the lack of aldehyde-receptors in the fishes' gustatory system.

SMILES: CC(C)CC=O [3-methylbutanal]
- Response (time from delivery to response) (tiger sharks): 1 s
- TTI (termination of tonic immobility) (tiger sharks): Y
- Bite Y (termination of tonic immobility), trials of trials (nurse sharks): each resulting in termination of tonic immobility and 2/2
- response to direct delivery to the mouth (blue sharks): behavioral response (classic mouth-agape response)
- Hd-Syringe N (no response), trials of trials [1]: one and 1/27
- Hd-Syringe R (behavior response within tonic immobility), trials of trials [1]: 6/27
- Hd-Syringe R, percent of trials [1]: 22%
- Hd-Syringe Y (termination of tonic immobility), trials of trials [1]: 20/27
- Hd-Syringe Y, percent of trials [1]: 74%
- Syringe 3/5/10 Y (termination of tonic immobility), trials of trials [2]: 7/7
- Syringe 3/5/10 Y, percent of trials [2]: 100%
- Syringe Y (termination of tonic immobility), trials of trials [3]: 7/7
- feeding behavior of fish in the presence of the aldehyde [4]: slightly increased
